Laboratory results: US20110021619A1, “EXTERNAL PREPARATION FOR SKIN CONTAINING FLAVANONE DERIVATIVE” (priority 2006, published 2011)

How the values were obtained:
[1] = test system: Normal human fibroblasts; test: Wound-healing model (punched three-dimensional collagen gel), behavior of fibroblasts; format: cell-based; details: 10^−6 ml/ml-DMEM farrerol, after 24 hours, vs farrerol-free group
From the text: 1) The culture of fibroblasts obtained by Protocol 4 of Example 1 and the collagen medium solution were mixed together at a ratio of 1:9 (volume) and then suspension-cultured in a 10%-FBS medium for 1 week.
2) When the size of a collagen gel was reduced from one at the time of being prepared by the addition of the collagen medium solution to a size of about ⅕ to 1/10, the center portion of the gel was punched out by a disposable biopsy punch with a diameter of 3 mm.
3) A 6-well plate was prepared and 15 μl of the collagen solution was then dropped on the center of the well. Subsequently, the punched three-dimensional collagen gel was mounted thereon and incubated for 10 minutes (37° C., 5% CO2).
4) When the dropped collagen was solidified and the three-dimensional collagen gel was attached to the bottom of the well, 10% FBS-DMEM, 0.1% heparin/10% FBS-DMEM, and 1.0% heparin/10% FBS-DMEM were added in a volume of 3 ml/well.

[2] = test system: Normal human epidermal keratinocytes; test: Cell proliferation effect of farrerol on keratinocytes (direct evaluation, cell count); format: cell-based; details: FIG. 7
Method: 3) After 24 hours, 48 hours, and 72 hours from the sample addition, the cells were dispersed with 0.05% Trypsin/EDTA and the number thereof was then counted by a blood cell counter. By the way, in Experiment 1, the evaluation for WST-8 was used as an indicator of the number of cells. Since such a method is provided for indirect evaluation of the number of cells by acting on […] in mitochondria, the present study directly count the number of cells.

[3] = test system: NHDF; test: Building of collagen fiber bundle in collagen gel with heparin, SEM observation; format: cell-based, human; details: 1% heparin at final, 5 days incubation, FIG. 3
Method: A collagen solution was prepared by mixture of 0.5% type-I collagen: 5×DMEM: 200 mM HEPES: 2.2% NaHCO3: 0.1 N NaOH: FBS: water at a ratio of 4:4:2:2:1:2:3 (performed while cooling).
A lower-layer collagen solution was prepared by mixing collagen solution with water at a ratio of 9 to 1.
The lower-layer collagen solution was dispensed into the respective wells of a 48-well plate in a volume of 100 μl/well.
The collagen solution was mixed with the cell suspension at a ratio of 9 to 1 (volume) and then dispensed into the respective wells in a volume of 300 μl/well.
The addition of 1.8% Heparin/10% FBS-DMEM was performed in a volume of 500 μl/well (1% Heparin/well at final).
Incubation was carried out in the CO2 incubator (5 days).
A sample for SEM observation was obtained.

[4] = test system: Normal human fibroblasts; test: Toxicity of farrerol on fibroblasts, MTT assay (WST-8); format: cell-based; details: 24, 48 and 72 hours after addition, any of the concentrations considered
Method: 1. Fibroblasts grown to 80% confluency were dispersed with 0.05% Trypsin/EDTA. The dispersant was seeded on 96 wells/plate at a concentration of 3×10^3 cells/well. 2. […] 3. […] 4. Absorbance was measured at a measurement wavelength of 450 nm and a reference wavelength of 650 nm.

[5] = test system: Normal human fibroblasts; test: Screening with wound model (punched collagen gel), Example 11; format: cell-based
Method: The fractions containing the single ingredients obtained as described above are provided as test substances and the effect of each test substance to construct collagen is then evaluated to screen the substance with a wound-healing effect. The specific procedures will be described later.
Using a “wound model” provided with a defect area formed by punching a collagen gel containing animal fibroblasts, the degree of filling or reduction of the defect area in the presence of a test substance will be observed. The procedures are as follows.
1) Normal human fibroblasts grown to 80% confluency in preculture were dispersed with 0.05% Trypsin/EDTA. The fibroblasts were then seeded on a plate at a cell density of 3×10^5 cells/25 cm^2 (1×10^4 cells/cm^2).
3) A collagen gel was prepared by adding a collagen medium solution to the obtained culture in a manner similar to Example 3. The fibroblasts in the collagen gel were cultured using the medium used in (2). The concentration of the test substance in the medium corresponded to the concentration of the medium of (2).
4) After culturing for 1 week, the size of a collagen gel was reduced from one at the time of being prepared by the addition of the collagen medium solution to a size of about ⅕ to 1/10. Subsequently, the center portion of the collagen gel was punched out in a donut form by a disposable biopsy punch with a diameter of 3 mm. As a result, a “wound model” was prepared.
5) A 6-well plate was prepared and 5 μl of the collagen solution was then dropped on the center portion of the well. Subsequently, the collagen gel of the wound model was mounted thereon and incubated at 37° C. for 15 minutes, allowing the collagen gel to be attached on the bottom of the well.
6) Subsequently, 3 ml of the same medium as that of (2) was added to each of the wells and the fibroblasts in the above-mentioned collagen gel was then cultured for 7 days. During the culture, the process of closing up the wound area of the collagen gel was visually observed.

[6] = test system: epidermal keratinocytes and fibroblasts; test: Influence on fibroblasts through epidermal keratinocytes, amount of procollagen produced (PIP EIA); format: cell-based, human
Method: The method is based on one described in Eming SA et al., Hum. Gene. Ther., 9 (4), 529-39 (1998).
DAY 1: The cells are seeded on a 24-well plate at a cell density of 3×10^4 cells/well. […] DAY 7: The supernatant of the culture is collected.
DAY 3: The cells are seeded on a 24-well plate at a cell density of 2.5×10^4 cells/well. DAY 7: The plate is washed with PBS and the culture supernatant (900 μl) of the epidermal keratinocytes is then added, followed by culturing for 48 hours. DAY 9: The plate is washed with PBS and serum-free DMEM and the medium is then replaced with 500 μl of serum-free DMEM, followed by culturing for 2 hours. The supernatant of the culture is collected and the amount of procollagen in the centrifuged supernatant (15000 rpm, 5 sec.) was then measured depending on the method described below. […]
4) A standard curve was formed by plotting absorbance values at a wavelength of […] while the absorbance of the medium was set to zero as a reference. Then, the PIP concentration was read out from the corresponding absorbance of the test substance.

[7] = test system: Normal human fibroblasts; test: Model of defective dermal tissue with wound (punched collagen gel), Example 6; format: cell-based; details: FIG. 4
Method: The procedures will be described below. The results are represented in FIG. 4.
1) Normal human fibroblasts grown to 80% confluency were dispersed with 0.05% Trypsin/EDTA. The fibroblasts were seeded at a cell density of 3×10^5 cells/25 cm^2.
3) A collagen gel was prepared by adding a collagen medium solution to the culture obtained by culturing under each of the conditions in a manner similar to Example 2. The prepared collagen gel was then suspension-cultured for 1 week in the same medium as that of the culture condition of (2).
4) When the size of a collagen gel was reduced from one at the time of being prepared by the addition of the collagen medium solution to a size of about ⅕ to 1/10, the center portion of the gel was punched out in a donut form by a disposable biopsy punch with a diameter of 3 mm. As a result, a “wound model” was prepared.
5) A 6-well plate was prepared and 5 μl of collagen was then dropped on the center portion of the well. Subsequently, the collagen gel of the wound model was mounted thereon and incubated at 37° C. for 15 minutes.
6) When the dropped collagen was solidified and the gel was attached to the bottom of the well, 3 ml of the medium with the same condition as that of (3) was added, followed by culturing as a “model of defective dermal tissue with wound”. Subsequently, the process of closing up the wound area of the collagen gel was visually observed.

[8] = test system: Normal human epidermal keratinocytes
Method: 1) Normal human epidermal keratinocytes grown to 80% confluency were dispersed with 0.05% Trypsin/EDTA. The dispersant was seeded on 96 wells/plate at a concentration of 3×10^3 cells/well and 6×10^3 cells/well.
4) Absorbance (OD value) was measured at a measurement wavelength of 450 nm and a reference wavelength of 650 nm.

SMILES: Cc1c(O)c(C)c2c(c1O)C(=O)CC(c1ccc(O)cc1)O2 (centres unmarked) [farrerol]
- movement of fibroblasts from the wound area ([1]; 0.1% heparin/10% FBS-DMEM and 1.0% heparin/10% FBS-DMEM): no difference in cell movement
- movement of fibroblasts from the wound area ([1]; unsupplemented 10% FBS-DMEM, FIG. 2): longer movement distance of fibroblasts and a more active cellular movement
- cell shape [2]: no change in cell shape
- building of a collagen fiber bundle [3]: prevents an inhibitory effect of heparin on the building of a collagen fiber bundle
- cytotoxicity [4]: Significant cytotoxicity could not be confirmed
- degree of filling or reduction of the defect area ([5]; compared with the rest of the seven single-ingredient fractions of Hypericum erectum extract): highest degree of filling or reduction of the defect area
- concentration exerting a wound-healing promoting effect ([5]; effective concentration read from defect area reduction): at least 10^−6 M
- reduction of the punch hole (defect area) ([5]; final concentration of farrerol 10^−5 M, FIG. 9): distinctly promoted
- reduction of the punch hole (defect area) ([5]; final concentration of farrerol 10^−6 M, FIG. 9): distinctly promoted
- promotion of reduction of the punch hole (defect area) ([5]; final concentration of farrerol 10^−7 M, FIG. 9): obscure
- amount of procollagen produced ([6]; another system: farrerol added at the time of culturing fibroblasts, then keratinocyte culture supernatant added): did not show a large change in amount of procollagen produced
- amount of procollagen produced ([6]; fibroblasts cultured 48 hours with supernatant of keratinocytes treated with farrerol 10^−6, 10^−7, 10^−8 M, FIG. 8): increased significantly depending on the concentration of farrerol
- reduction of punched hole size ([7]; final concentration of farrerol 10^−5 M): promoted clearly
- reduction of punched hole size ([7]; final concentration of farrerol 10^−6 M): promoted clearly
- promotion of reduction of punched hole size ([7]; final concentration of farrerol 10^−7 M): unclear
- OD value (450 nm) ([8]; dependence on concentration of farrerol, FIG. 5): increased depending on the concentration of farrerol
- OD value, reproducibility ([8]; doubled number of seeded cells, 6×10^3 cells/well): almost the similar result could be obtained
